# According to patent publication US6492329B1, “Cytokine and hemopoietic factor endogenous production enhancer and methods of use thereof” (Novelos Therapeutics, Inc., priority 1995, dated 2002):
# Experiments:
# [1] = test system: rat embrional fibroblasts (REF); experiment: Number of REF cells throughout 72-hr incubation; format: cell-based
# Method: (§1) To this end, these substances had been incubated for 72 hours with cells of rat embrional fibroblasts (REF) and the same cells, transformed with adenoviral E1A gene in complementation with ras-oncogene (e-ras cell line). Subsequent evaluation of the cellularity of experimental samples was carried out by counting the quantity of cell per milliliter (for REF cell line) or clones in dish (for e-ras cell line).
# (§2) Cells were cultivated on DMEM medium supplemented with 10% fetal calf serum and […] gentamicin. Cultivation was carried out in Petri dishes.
# (§3) REF cells was cultivated with initial density of 800 000 cell per mL, evaluation of the cellularity was performed at 0, 24, 48 and 72 hours of incubation with the test articles.
# (§4) For the test-system for estimation of apoptosis regulation UV-induced cell death was triggered in a dose of 4 Dj. Test articles were added immediately after irradiation. Then, the quantity of cell per milliliter (for REF cell line) or clones in dish (for e-ras cell line) were monitored every 24 hours. For determination of DNA-fragmentation the electrophoresis in agarose gel was used at standard settings.
# [2] = test system: e-ras cells after UV-irradiation; experiment: Number of clones of e-ras cells after UV-irradiation; format: cell-based, rat
# Method: as §1, §2
# (§5) E-ras cells were seeded at a cell density of 300 cells per 5 cm dish. 7 days after growth of e-ras cells had been started the quantity of clones was evaluated and the test articles were added into the dishes.
# as §4
# leukemia P388 cells [3] = experiment: Leukemia P388 in mice: ascitic fluid and survival (Example 14); settings: for Accumulation of ascitic (weight gain, %): leukemia P388
# Method: (§6) An influence of 7 day course of test article daily administration was studied in respect of tumor progression, which was estimated using the two integral indices: pace of mouse weight gain due to accumulation of ascitic fluid, and by animal mean survival time after inoculation.
# (§7) The study was carried out on DBA/2 mice weighing 18-21 g. First, tumor cell passage was performed using 6 animals for each cell line. For this, cells kept at the temperature of the liquid nitrogen were de-frozen and adjusted to the concentration of 5×10^6 cells/mL by sterile Hanks' solution. Then, 6 mice were intra peritoneally inoculated with 0.2 mL of each line cellular suspension.
# (§8) Ascitic fluid was collected 6 days after the inoculation with L1210 cells, 8 days after the inoculation with P388 ones and 18 days after inoculation with Erlich adenocarcinoma cells. Thus obtained, the samples of passaged tumor cells were used for the main experiments. The fluid liquid was dissolved by sterile Hanks' solution so that cell concentration be 5×10^6 cells/mL for P388 cells and Erlich adenocarcinoma cells, 5×10^5 cells/mL for L1210 cells.
# (§9) Eleven groups of animals with no less than 15 mice each were formed for experiments with either tumor cell line. Mice were inoculated with 0.2 mL of resultant cell suspensions per mouse (10^6 P388 and Erlich adenocarcinoma cells/mouse, and 10^5 L1210 cells/mouse). 24 hours after the tumor cells inoculation, animals were given the first injections of the test articles or vehicles. The test article injections were made daily till the 14th day of the experiment or till the animal death. The volume of solutions injected comprised 0.01 mL/g body weight.
# (§10) #1—intact animals receiving imitation of tumor cell inoculation (injection of normal saline) which further were treated with normal saline throughout the entire experiment;
# (§11) #2—control animals, inoculated with tumor cells, which further were treated with test article vehicle (normal saline);
# leukemia L1210 cells [4] = experiment: Leukemia L1210 in mice: serum cytokines, ascitic fluid, survival (Example 5); settings: for Accumulation of ascitic fluid (weight gain) / Concentration in serum: IFNα / Concentration in serum: IL-1 / Concentration in serum: IL-2 / Concentration in serum: IL-6 / Concentration in serum: TNFα: L1210 mice
# Method: (§12) An influence of 7 day course of test article daily administration was studied in respect of variations of serum cytokine levels (IL-1, IL-2, IL-6, IFNα, TNF). In parallel, the tumor progression was estimated using the two integral indices: pace of mouse weight gain due to accumulation of ascitic fluid, and by animal mean survival time after inoculation.
# (§13) The study was carried out on DBA/2 mice weighing 18-21 g. First, tumor cell passage was performed using 6 animals for each cell line. For this, cells kept at the temperature of the liquid nitrogen were de-frozen and adjusted to the concentration of 5×10^6 cells/mL by sterile Hanks' solution. Then, 6 mice were intraperitoneally inoculated with 0.2 mL of each line cellular suspension.
# (§14) Ascitic fluid was collected 6 days after the inoculation with L1210 cells and 8 days after the inoculation with P388 ones. Thus obtained, the samples of passaged tumor cells were used for the main experiments. The fluid liquid was dissolved by sterile Hanks' solution so that cell concentration be 5×10^6 cells/mL for P388 cells and 5×10^5 cells/mL for L1210 cells.
# (§15) Nine groups of animals with no less than 15 mice each were formed for experiments with either tumor cell line. Mice were inoculated with 0.2 mL of resultant cell suspensions per mouse (10^6 P388 cells/mouse, and 10^5 L1210 cells/mouse). 24 hours after the tumor cells inoculation. animals were given the first injections of the test articles or vehicles. The test article injections were made daily till the 14th day of the experiment or until the animal's death. The volume of solutions injected comprised 0.01 mL/g body weight.
# as §10, §11
# leukemia P388 cells [5] = experiment: Leukemia P388 in mice: serum cytokines, ascitic fluid, survival (Example 5); settings: for Accumulation of ascitic fluid (weight gain) / Concentration in serum: IFNα / Concentration in serum: IL-1 / Concentration in serum: IL-2 / Concentration in serum: IL-6 / Concentration in serum: TNFα: P388 mice
# Method: as §12, §13, §14, §15, §10, §11
# leukemia L1210 cells [6] = experiment: Leukemia L1210 in mice: ascitic fluid and survival (Example 14); settings: for Accumulation of ascitic (weight gain, %): leukemia L1210
# [7] = test system: rat embrional fibroblasts (REF) after UV-irradiation; experiment: Number of REF cells after UV-irradiation; format: cell-based
# Method: as §1, §2, §3, §4
# HL-60 cells = experiment: Proliferation/apoptosis of HL-60 tumor cells (cell number per well, flow cytofluorometry)
# Method: Subsequent evaluation of the cell cycle parameters was carried out by the flow cytofluorometry technique.
# A mononuclear fraction of blood leukocytes were obtained by centrifugation in gradient of fikoll-metrizoat (Histopaque, Sigma). […] Cell viability was estimated by the Trypan blue exclusion method, then the cell suspension was placed into wells of 96-well microtiter plates—200,000 cells per well. […] Cultivation was carried out in closed flasks, the medium volume was 12 mL, it was changed every four days by centrifugation. The nature of the cells growth was suspensive. […] 50 μL of each test solution were added to one or the other cell culture and thereafter cells were cultivated for 24-96 hours. Then, they were tested by the flow cytofluorometry to estimate DNA content in the cell nuclei. In case of apoptosis-like cellular death, the portion of cell nuclei with normal content of DNA became reduced, while the portion of cell nuclei containing abnormally small DNA quantity became larger.
# The analysis procedure was the following: after incubation completion, cells were centrifuged and transferred to a standard phosphate isotonic buffer pH 7.4, containing RNA-ase A (20 μg/mL), ethidium bromide (fluorometric indicator for double stranded nucleic acid. 10 μg/mL) and MgCl2 (5 mM). After the cells were disintegrated by nonionic detergent Triton X-100 (final concentration 0.1%). The suspension of cell nuclei thus obtained was analyzed by flow cytofluorometry with an argon laser as a source of light (wave length 488 nm). The red fluorescence due to DNA bound ethidium bromide was taken to be the measure of DNA content in the cell nuclei.
# normal human lymphocytes = experiment: Proliferation/apoptosis of normal human lymphocytes (cell number per well, flow cytofluorometry); format: cell-based
# [8] = test system: e-ras cell line (REF transformed with E1A and ras-oncogene); experiment: Number of clones of e-ras cells throughout 72-hr incubation; format: cell-based, rat
# Method: as §1, §2, §5, §4
# [9] = test system: Erlich adenocarcinoma cells; experiment: Erlich adenocarcinoma in mice: ascitic fluid and survival (Example 14); settings: for Accumulation of ascitic (weight gain, %): Erlich adenocarcinoma
# Method: as §6, §7, §8, §9, §10, §11
compound,measurement,setting,value
"OO [0.003% H2O2, hydrogen peroxide]",number of REF cells (M ± m),[1]; 0 hours of incubation,822 ± 11 × 10^3 cells
same,number of REF cells (M ± m),[1]; 24 hours of incubation,1365 ± 14 × 10^3 cells
same,number of REF cells (M ± m),[1]; 48 hours of incubation,2598 ± 63 × 10^3 cells
same,number of REF cells (M ± m),[1]; 72 hours of incubation,5059 ± 34 × 10^3 cells
same,number of clones of e-ras cells after UV-irradiation (M ± m),[2]; 0 hours,288 ± 4
same,number of clones of e-ras cells after UV-irradiation (M ± m),[2]; 24 hours,186 ± 4
same,number of clones of e-ras cells after UV-irradiation (M ± m),[2]; 48 hours,124 ± 3
same,number of clones of e-ras cells after UV-irradiation (M ± m),[2]; 72 hours,84 ± 6
same,"Accumulation of ascitic (weight gain, %)",leukemia P388 cells [3]; number of injection 0,0.7 ± 0.2%
same,"Accumulation of ascitic (weight gain, %)",leukemia P388 cells [3]; number of injection 3,4.1 ± 0.4%
same,"Accumulation of ascitic (weight gain, %)",leukemia P388 cells [3]; number of injection 7,19.0 ± 2.1%
same,Mean survival time,leukemia P388 cells [3]; mice inoculated with leukemia P388 cells,21.2 ± 0.8
same,Accumulation of ascitic fluid (weight gain),leukemia L1210 cells [4]; 0 injections,0.79%
same,Concentration in serum: IFNα,leukemia L1210 cells [4]; 0 injections,133.7 pg/mL
same,Concentration in serum: IL-1,leukemia L1210 cells [4]; 0 injections,17.07 pg/mL
same,Concentration in serum: IL-2,leukemia L1210 cells [4]; 0 injections,16.18 pg/mL
same,Concentration in serum: IL-6,leukemia L1210 cells [4]; 0 injections,120.9 pg/mL
same,Concentration in serum: TNFα,leukemia L1210 cells [4]; 0 injections,110. pg/mL
same,Accumulation of ascitic fluid (weight gain),leukemia L1210 cells [4]; 3 daily injections,6.12%
same,Concentration in serum: IFNα,leukemia L1210 cells [4]; 3 daily injections,189. pg/mL
same,Concentration in serum: IL-1,leukemia L1210 cells [4]; 3 daily injections,38.15 pg/mL
same,Concentration in serum: IL-2,leukemia L1210 cells [4]; 3 daily injections,23.5 pg/mL
same,Concentration in serum: IL-6,leukemia L1210 cells [4]; 3 daily injections,140. pg/mL
same,Concentration in serum: TNFα,leukemia L1210 cells [4]; 3 daily injections,158.0 pg/mL
same,Accumulation of ascitic fluid (weight gain),leukemia L1210 cells [4]; 7 daily injections,21.61%
same,Concentration in serum: IFNα,leukemia L1210 cells [4]; 7 daily injections,209. pg/mL
same,Concentration in serum: IL-1,leukemia L1210 cells [4]; 7 daily injections,23.6 pg/mL
same,Concentration in serum: IL-2,leukemia L1210 cells [4]; 7 daily injections,45.5 pg/mL
same,Concentration in serum: IL-6,leukemia L1210 cells [4]; 7 daily injections,103. pg/mL
same,Concentration in serum: TNFα,leukemia L1210 cells [4]; 7 daily injections,220.0 ± pg/mL
same,Mean survival time,"leukemia L1210 cells [4]; mice inoculated with leukemia L1210 cells, daily injections till day 14 or death",9.7 ± 0.21
same,Accumulation of ascitic fluid (weight gain),leukemia P388 cells [5]; 0 injections,0.63 ± 0.15%
same,Concentration in serum: IFNα,leukemia P388 cells [5]; 0 injections,129. ± 10.0 pg/mL
same,Concentration in serum: IL-1,leukemia P388 cells [5]; 0 injections,15.5 ± 2.04 pg/mL
same,Concentration in serum: IL-2,leukemia P388 cells [5]; 0 injections,14.95 ± 2.16 pg/mL
same,Concentration in serum: IL-6,leukemia P388 cells [5]; 0 injections,134.0 ± 15.6 pg/mL
same,Concentration in serum: TNFα,leukemia P388 cells [5]; 0 injections,119. ± 9.13 pg/mL
same,Accumulation of ascitic fluid (weight gain),leukemia P388 cells [5]; 3 daily injections,5.4 ± 0.62%
same,Concentration in serum: IFNα,leukemia P388 cells [5]; 3 daily injections,205.8 ± 18.3 pg/mL
same,Concentration in serum: IL-1,leukemia P388 cells [5]; 3 daily injections,44.7 ± 6.14 pg/mL
same,Concentration in serum: IL-2,leukemia P388 cells [5]; 3 daily injections,22.0 ± 2.81 pg/mL
same,Concentration in serum: IL-6,leukemia P388 cells [5]; 3 daily injections,156.0 ± 16.3 pg/mL
same,Concentration in serum: TNFα,leukemia P388 cells [5]; 3 daily injections,144.5 ± 12.8 pg/mL
same,Accumulation of ascitic fluid (weight gain),leukemia P388 cells [5]; 7 daily injections,20.3 ± 2.28%
same,Concentration in serum: IFNα,leukemia P388 cells [5]; 7 daily injections,190. ± 16.7 pg/mL
same,Concentration in serum: IL-1,leukemia P388 cells [5]; 7 daily injections,28.6 ± 4.11 pg/mL
same,Concentration in serum: IL-2,leukemia P388 cells [5]; 7 daily injections,40.8 ± 5.12 pg/mL
same,Concentration in serum: IL-6,leukemia P388 cells [5]; 7 daily injections,110.9 ± 12.5 pg/mL
same,Concentration in serum: TNFα,leukemia P388 cells [5]; 7 daily injections,248. ± 20.7 pg/mL
same,Mean survival time,"leukemia P388 cells [5]; mice inoculated with leukemia P388 cells, daily injections till day 14 or death",9.9 ± 0.24
same,"Accumulation of ascitic (weight gain, %)",leukemia L1210 cells [6]; number of injection 0,0.77 ± 0.2%
same,"Accumulation of ascitic (weight gain, %)",leukemia L1210 cells [6]; number of injection 3,6.1 ± 0.4%
same,"Accumulation of ascitic (weight gain, %)",leukemia L1210 cells [6]; number of injection 7,19.2 ± 2.2%
same,Mean survival time,leukemia L1210 cells [6]; mice inoculated with leukemia L1210 cells,9.2 ± 0.8
same,number of REF cells after UV-irradiation (M ± m),[7]; 0 hours,822 ± 11 × 10^3 cells
same,number of REF cells after UV-irradiation (M ± m),[7]; 24 hours,365 ± 14 × 10^3 cells
same,number of REF cells after UV-irradiation (M ± m),[7]; 48 hours,258 ± 33 × 10^3 cells
same,number of REF cells after UV-irradiation (M ± m),[7]; 72 hours,159 ± 24 × 10^3 cells
same,number of HL-60 cells per well,HL-60 cells; 24 hours incubation,122 ± 6 × 10^4 cells
same,number of HL-60 cells per well,HL-60 cells; 48 hours incubation,186 ± 12 × 10^4 cells
same,number of HL-60 cells per well,HL-60 cells; 72 hours incubation,488 ± 24 × 10^4 cells
same,number of HL-60 cells per well,HL-60 cells; 96 hours incubation,712 ± 22 × 10^4 cells
same,number of normal lymphocytes per well,normal human lymphocytes; 24 hours incubation,28 ± 2 × 10^4 cells
same,number of normal lymphocytes per well,normal human lymphocytes; 48 hours incubation,73 ± 5 × 10^4 cells
same,number of normal lymphocytes per well,normal human lymphocytes; 72 hours incubation,123 ± 8 × 10^4 cells
same,number of normal lymphocytes per well,normal human lymphocytes; 96 hours incubation,206 ± 8 × 10^4 cells
same,number of clones of e-ras cells (M ± m),[8]; 0 hours of incubation,288 ± 4
same,number of clones of e-ras cells (M ± m),[8]; 24 hours of incubation,286 ± 4
same,number of clones of e-ras cells (M ± m),[8]; 48 hours of incubation,264 ± 3
same,number of clones of e-ras cells (M ± m),[8]; 72 hours of incubation,234 ± 6
same,"Accumulation of ascitic (weight gain, %)",[9]; number of injection 0,0.9 ± 0.2%
same,"Accumulation of ascitic (weight gain, %)",[9]; number of injection 3,14.1 ± 0.6%
same,"Accumulation of ascitic (weight gain, %)",[9]; number of injection 7,27.2 ± 1.2%
same,Mean survival time,[9]; mice inoculated with Erlich adenocarcinoma cells,9.8 ± 0.8
